Reference: patent publication US8637510B2, “Morpholinothiazoles as alpha 7 positive allosteric modulators” (Janssen Pharmaceutica NV, priority 2009, dated 2014)

How the values were obtained:
human alpha 7-wt nAChR = target: T1, human alpha 7-wt nAChR (Homo sapiens, UniProt P36544); experiment: Ca2+ flux imaging (FDSS) (Protocol B); assay type: cell-based; conditions: for EC50: potentiation of 100 μM choline, compounds 0.01 μM to 30 μM, read-out: a7-PAM-G_[33]_pEC50 pEC50 (converted); for a7-PAM-G_[33]_Eff_Curve_FI % Efficacy / Emax: efficacy of 100 μM choline defined as 100% in the absence of a PAM; for Emax: read-out: a7-PAM-G_[33]_Eff_Curve_FI % Efficacy
T1 construct: expressed in transfected cells
Procedure, shortened: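 Fluo-4AM-loaded cells expressing human α7-wt nAChR, in HBSS with 10 mM HEPES, 5 mM CaCl2, 0.1% BSA, received compound (0.01–30 μM), typically 10 min before 100 μM choline, with calcium flux read in real time. Potentiation is relative to choline alone (100%); EC50 from sigmoidal curves.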

[1] = target: T2, human alpha 7-wt nAChR-expressing GH4C1 cells (Homo sapiens, UniProt P36544); experiment: Patch-clamp current recording (whole-cell voltage-clamp, PAM type classification); assay type: cell-based; set-up: key: Type 0 compounds minimally change the effect size of the current elicited by 1 mM choline.; Type 1 compounds enhance the effect size of the current elicited by 1 mM choline but minimally alter the kinetics of the receptor.; Type 2 compounds enhance the effect size of the current elicited by 1 mM choline while reducing the rate and/or the extent of desensitization.; Type 3 compounds enhance the effect size of the current elicited by 1 mM choline. When tested at higher concentrations up to 10 μM they completely inhibit desensitization; Type 4 compounds allow for an initial desensitization of the receptor followed by a re-opening of the receptor during agonist application; conditions: 1 mM choline
T2 construct: expressed in transfected cells
Procedure: The compounds of the present invention are classified as type 1-4, based on qualitative kinetic properties, as determined by whole-cell voltage-clamp recordings. This classification is based on the effect of an alpha 7 PAM compound, as described hereinbefore, on the signal elicited by an agonist application. In particular, said agonist is choline at a concentration of 1 mM. In a preferred experimental setting, said alpha 7 PAM compound and choline are simultaneously applied to the cell, as described hereinafter. Desensitization is defined as the closure of the receptor upon activation during the application of the agonist in whole-cell voltage-clamp electrophysiology measurements seen as the reduction of the […] current after initial activation by the agonist.
The definition of the PAM types 1-4 is described hereinafter: • Type 0 compounds minimally change the effect size of the current elicited by 1 mM choline. • Type 1 compounds enhance the effect size of the current elicited by 1 mM choline but minimally alter the kinetics of the receptor. In particular, the rate and the extent of desensitization and of deactivation of the receptor elicited by the agonist is not affected. The compound-modulated response to 1 mM choline, therefore, is close to a linear scaling of the 1 mM choline response in absence of the alpha 7 PAM compound. • Type 2 compounds enhance the effect size of the current elicited by 1 mM choline while reducing the rate and/or the extent of desensitization. Deactivation of the receptor is generally unaffected. • Type 3 compounds enhance the effect size of the current elicited by 1 mM choline. […] Deactivation of the receptor may be slowed down • Type 4 compounds allow for an initial desensitization of the receptor followed by a re-opening of the receptor during agonist application. At low-potency concentrations of the alpha 7 PAM compound, the agonist-induced activation, which is followed by desensitization, can still be separated from the compound-induced re-opening as an initial inward current-maximum. At higher potency concentrations of the alpha 7 PAM compound, the re-opening occurs faster than the closure due to desensitization so that the initial current-maximum disappears.
A compound was considered to have interesting PAM-like activity when the potentiation of the peak current was at least 200% compared to the control choline response (=100%). Such compounds are classified as belonging to a particular PAM type in the Experimental Part. Compounds not meeting the condition are not classified as belonging to a particular PAM-type.
The compounds also have a potentiating effect on the response to choline when measured by whole-cell patch clamp electrophysiology in GH4C1 cells stably over-expressing the human wild-type alpha 7 receptor.
Patch-clamp recording from mammalian cells has provided a powerful means of assessing the function of membrane-bound proteins thought to be subunits of ligand-gated ion channels. Activation of such proteins by endogenous or exogenous ligands cause opening of a pore associated with the receptor through which ions flow down their electrochemical gradient. In the case of the human alpha 7-wt nAChR-expressing GH4C1 recombinant cell line the preferential permeability to calcium of this receptor means that calcium flows into the cell upon activation by ACh, choline and other nicotinic ligands giving rise to a calcium current. Since this receptor rapidly desensitizes in the presence of agonist it is important that an application system is used which is capable of very rapid switching of solutions (<100 ms) to prevent partial or full desensitisation of receptor responses coincident with the time of agonist application. Consequently, a second convenient technique to assess the enhancement of nicotinic efficacy is a patch-clamp recording from human alpha 7-wt nAChR-expressing GH4C1 cells coupled with a rapid-application system. […]

T2 sequence (P36544 23-502): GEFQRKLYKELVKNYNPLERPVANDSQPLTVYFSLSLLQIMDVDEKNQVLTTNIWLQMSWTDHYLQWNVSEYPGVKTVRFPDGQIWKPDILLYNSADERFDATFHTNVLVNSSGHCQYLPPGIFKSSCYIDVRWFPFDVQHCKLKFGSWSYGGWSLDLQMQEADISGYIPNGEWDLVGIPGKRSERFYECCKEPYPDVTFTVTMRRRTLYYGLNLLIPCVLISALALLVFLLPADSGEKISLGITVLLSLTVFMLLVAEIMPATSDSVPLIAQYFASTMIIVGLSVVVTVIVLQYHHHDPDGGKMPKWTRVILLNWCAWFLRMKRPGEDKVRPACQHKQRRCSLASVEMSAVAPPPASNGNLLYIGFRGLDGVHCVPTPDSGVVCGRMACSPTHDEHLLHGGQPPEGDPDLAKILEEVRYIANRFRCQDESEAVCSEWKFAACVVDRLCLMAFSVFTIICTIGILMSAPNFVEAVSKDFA
T1 sequence (P36544 23-502): as above

| SMILES | EC50 (human alpha 7-wt nAChR) [nM] | melting point [°C] | a7-PAM-G_[33]_Eff_Curve_FI % Efficacy (human alpha 7-wt nAChR) [%] | Emax (human alpha 7-wt nAChR) [%] | PAM_Type PAM type [1] |
| --- | --- | --- | --- | --- | --- |
| Cc1cc(-c2sc(N3CCOC(C)C3)nc2CNC(=O)C(C)C)cc(C)n1 (single isomer, unassigned) [Compound 71, N-[[5-(2,6-dimethyl-4-pyridinyl)-2-[(2S*)-2-methyl-4-morpholinyl]-4-thiazolyl]methyl]-2-methyl-propanamide] | 692 | 188 |  |  | 2 |
| Cc1cc(-c2sc(N3CCOC(C)C3)nc2CNC(=O)CC2CC2)cc(C)n1 (single isomer, unassigned) [Compound 75, N-[[5-(2,6-dimethyl-4-pyridinyl)-2-[(2R*)-2-methyl-4-morpholinyl]-4-thiazolyl]methyl]-cyclopropaneacetamide] | 1020 | 170 | 819 |  | 2 |
| Cc1cc(-c2sc(N3CCOC(C)C3)nc2CNC(=O)C(C)C)cc(C)n1 (single isomer, unassigned) [Compound 76, N-[[5-(2,6-dimethyl-4-pyridinyl)-2-[(2R*)-2-methyl-4-morpholinyl]-4-thiazolyl]methyl]-2-methyl-propanamide] | 550 | 189 |  | 611 | 2 |
| Cc1cc(-c2sc(N3CCOC(C)C3)nc2CNC(=O)CC2CC2)cc(C)n1 (single isomer, unassigned) [Compound 78, N-[[5-(2,6-dimethyl-4-pyridinyl)-2-[(2S*)-2-methyl-4-morpholinyl]-4-thiazolyl]methyl]-cyclopropaneacetamide] | 1170 | 169 | 919 |  | 2 |
| COc1cc(-c2sc(N3C[C@@H](C)O[C@@H](C)C3)nc2CNC(=O)CC2CC2)cc(C)n1 [Compound 83, N-[[2-[(2R,6S)-2,6-dimethyl-4-morpholinyl]-5-(2-methoxy-6-methyl-4-pyridinyl)-4-thiazolyl]methyl]-cyclopropaneacetamide] | 145 | 171 |  | 584 | 2 |
| COc1cc(-c2sc(N3C[C@@H](C)O[C@@H](C)C3)nc2CNC(=O)C2CCC2)cc(C)n1 [Compound 84, N-[[2-[(2R,6S)-2,6-dimethyl-4-morpholinyl]-5-(2-methoxy-6-methyl-4-pyridinyl)-4-thiazolyl]methyl]-cyclobutanecarboxamide] | 102 | 171 |  | 443 | 2 |
| Cc1cc(-c2sc(N3C[C@@H](C)O[C@@H](C)C3)nc2CNC(=O)CC2CC2)ccn1 [Compound 88, N-[[2-[(2R,6S)-2,6-dimethyl-4-morpholinyl]-5-(2-methyl-4-pyridinyl)-4-thiazolyl]methyl]-cyclopropaneacetamide] | 562 | 177 |  | 736 | 2 |
| Cc1cc(-c2sc(N3CCOC(C(F)(F)F)C3)nc2CNC(=O)c2ccc(F)cc2C)cc(C)n1 (centres unmarked) [Compound 193, N-[[5-(2,6-dimethyl-4-pyridinyl)-2-[2-(trifluoromethyl)-4-morpholinyl]-4-thiazolyl]methyl]-4-fluoro-2-methyl-benzamide] | 20.9 |  |  |  | 4 |
| Cc1cc(F)ccc1C(=O)NCc1nc(N2C[C@@H](C)O[C@@H](C)C2)sc1-c1ccnc(C(F)(F)F)c1 [Compound 198, N-[[2-[(2R,6S)-2,6-dimethyl-4-morpholinyl]-5-[2-(trifluoromethyl)-4-pyridinyl]-4-thiazolyl]methyl]-4-fluoro-2-methyl-benzamide] | 148 |  |  |  | 1 |

Second part, led by results:

| EC50 (human alpha 7-wt nAChR) [nM] | melting point [°C] | a7-PAM-G_[33]_Eff_Curve_FI % Efficacy (human alpha 7-wt nAChR) [%] | Emax (human alpha 7-wt nAChR) [%] | SMILES | PAM_Type PAM type [1] |
| --- | --- | --- | --- | --- | --- |
| 813 | 208 |  |  | Cc1cc(-c2sc(N3C[C@@H](C)O[C@@H](C)C3)nc2CNC(=O)c2cc(C)on2)cc(C)n1 [Compound 3, N-[[2-[(2R,6S)-2,6-dimethyl-4-morpholinyl]-5-(2,6-dimethyl-4-pyridinyl)-4-thiazolyl]methyl]-5-methyl-3-isoxazolecarboxamide] | 1 |
| 1410 | 184 |  | 927 | Cc1cc(C(=O)NCc2nc(N3C[C@@H](C)O[C@@H](C)C3)sc2-c2cc(C)nc(C)c2)on1 [Compound 4, N-[[2-[(2R,6S)-2,6-dimethyl-4-morpholinyl]-5-(2,6-dimethyl-4-pyridinyl)-4-thiazolyl]methyl]-3-methyl-5-isoxazolecarboxamide] | 2 |
| 871 | 176 |  | 498 | CCC(=O)NCc1nc(N2C[C@@H](C)O[C@@H](C)C2)sc1-c1cc(C)nc(C)c1 [Compound 39, N-[[2-[(2R,6S)-2,6-dimethyl-4-morpholinyl]-5-(2,6-dimethyl-4-pyridinyl)-4-thiazolyl]methyl]-propanamide] | 2 |
| 324 | 203 |  | 459 | COc1cc(-c2sc(N3C[C@@H](C)O[C@@H](C)C3)nc2CNC(=O)c2cc(C)on2)cc(C)n1 [Compound 82, N-[[2-[(2R,6S)-2,6-dimethyl-4-morpholinyl]-5-(2-methoxy-6-methyl-4-pyridinyl)-4-thiazolyl]methyl]-5-methyl-3-isoxazolecarboxamide] | 1 |
| 708 | 172 |  | 320 | COc1cc(-c2sc(N3C[C@@H](C)O[C@@H](C)C3)nc2CNC(=O)c2cccc(F)c2)cc(C)n1 [Compound 85, N-[[2-[(2R,6S)-2,6-dimethyl-4-morpholinyl]-5-(2-methoxy-6-methyl-4-pyridinyl)-4-thiazolyl]methyl]-3-fluoro-benzamide] | 0 |
| 813 | 177 |  | 646 | Cc1cc(-c2sc(N3C[C@@H](C)O[C@@H](C)C3)nc2CNC(=O)c2cc(C)on2)ccn1 [Compound 87, N-[[2-[(2R,6S)-2,6-dimethyl-4-morpholinyl]-5-(2-methyl-4-pyridinyl)-4-thiazolyl]methyl]-5-methyl-3-isoxazolecarboxamide] | 2 |
| 525 |  |  |  | Cc1cc(-c2sc(N3C[C@@H](C)O[C@@H](C)C3)nc2CNC(=O)COCC(F)(F)F)cc(C)n1 [Compound 175, N-[[2-[(2R,6S)-2,6-dimethyl-4-morpholinyl]-5-(2,6-dimethyl-4-pyridinyl)-4-thiazolyl]methyl]-2-(2,2,2-trifluoroethoxy)-acetamide] | 1 |
| 97.7 |  |  | 707 | Cc1cc(-c2sc(N3C[C@@H](C)O[C@@H](C)C3)nc2CNC(=O)C(C)C2CC2)cc(C)n1 (stereo partly drawn) [Compound 179, N-[[2-[(2R,6S)-2,6-dimethyl-4-morpholinyl]-5-(2,6-dimethyl-4-pyridinyl)-4-thiazolyl]methyl]-α-methyl-cyclopropaneacetamide] | 2 |
